This is an account of results in ChEMBL document CHEMBL3137667, “[Drug-induced liver injury; fourteenth updated edition of the bibliographic database of liver injuries and related drugs]” (Gastroenterol Clin Biol, 2004).

The conditions of data set [1]: human.
The conditions of data set [2]: human, serum, 4383 h.
The conditions of data set [3]: human. The source holds these as a separate data set.
The conditions of data set [4]: human, serum.
The conditions of data set [5]: human. The source holds these as a separate data set.
The conditions of data set [6]: human. The source holds these as a separate data set.
Data set [7] in a line: Highest frequency of moderate liver toxicity observed during clinical trials, expressed as a percentage. [column '% BIOL' in source]. As to conditions: human.
For data set [8] the following is noted: human. This is another data set of the same source.
For data set [9] the following is noted: human. The source holds these as a separate data set.
Data set [10] can be described thus: Highest frequency of acute liver toxicity observed during clinical trials, expressed as a percentage. [column '% AIGUE' in source]. As to conditions: human.
The conditions of data set [11]: human. This is another data set of the same source.
For data set [12] the following is noted: human. This is another data set of the same source.
The conditions of data set [13]: human, serum. This is another data set of the same source.
For data set [14] the following is noted: human. The source holds these as a separate data set.

*1 amine or outer side, *2 acyl side, *3 side chain or, on linkers, in order; H or OH if unused. Where a SMILES comes first, the peptide text is derived from it. Bridges are numbered along the chain shown (N, C = ends). [ ]: non-standard residue; d: D form. The star is where a group is joined. ξ: configuration not given here. X2 = N=C1NCCC([C@H](N[*:1])C(=O)[*:2])N1; ΔAla(Z-3-ureido) = NC(=O)N/C=C(\N)C(=O)O; ξβ3hOrn = NCCCC(N)CC(=O)*; Dap = NC[C@H](N)C(=O)O
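Throughout, for Hepatotoxicity (association with vascular disease): count of indexed literature references reporting vascular liver injury in humans, e.g. peliosis hepatitis, hepatic veno-occlusive disease or Budd-Chiari syndrome.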
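Throughout, for Hepatotoxicity (benign tumour): value is a count of indexed literature references citing a benign tumour confirmed by histopathology.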
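Throughout, for Hepatotoxicity (choleostasis): human cholestatic liver injury, shown by histopathology or by peak ALT or AST elevation over alkaline phosphatase ratio below 2, value counts indexed literature reports.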
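Throughout, for Hepatotoxicity (chronic liver disease): chronic liver injury confirmed by histopathology or persistently raised serum aminotransferase activity beyond 6 months, value given as the count of indexed literature references.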
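Throughout, for Hepatotoxicity (cirrhosis): value is a count of indexed literature references reporting cirrhosis confirmed by histopathology.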
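Throughout, for Hepatotoxicity (cytolytic): human cytolytic liver injury, shown by histopathology or by a ratio above 5 of peak ALT or AST elevation to alkaline phosphatase elevation, value counts indexed references.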
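Throughout, for Hepatotoxicity (granulomatous hepatitis): value is a count of indexed literature references reporting granulomatous liver disease confirmed by histopathology.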
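Throughout, for Hepatotoxicity (malignant tumour): malignant tumour confirmed by histopathology, value gives the count of indexed literature references reporting it.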
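Throughout, for Hepatotoxicity (severe hepatitis): human clinical data: severe hepatitis, meaning potentially life-threatening liver failure or clinically observed cases, the value counts how many indexed literature references report it.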
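Throughout, for Hepatotoxicity (steatosis): steatosis confirmed by histopathology, value is the count of indexed references.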

Take `CC(C)Nc1cccnc1N1CCN(C(=O)c2cc3cc(NS(C)(=O)=O)ccc3[nH]2)CC1` [DELAVIRDINE]: in data set [1], the “Hepatotoxicity (severe hepatitis)” value turned out to be 0. Further, the “Hepatotoxicity (chronic liver disease)” value in [2] came to 0. Moreover, the “Hepatotoxicity (choleostasis)” value in [3] is listed as 0. Also, the “Hepatotoxicity (acute)” value in data set [4] was found to be 0; in data set [10] it was 0%. Moreover, the “Hepatotoxicity (steatosis)” value in [5] is 0. For the same compound, the “Hepatotoxicity (cirrhosis)” value in data set [6] amounted to 0. The figures for the “Hepatotoxicity (moderate)” value in [7] and in data set [13] were 7.1% and 2, respectively. For the same compound, the “Hepatotoxicity (granulomatous hepatitis)” value in data set [8] is given as 0. Besides, the “Hepatotoxicity (cytolytic)” value in data set [9] is given as 0. The “Hepatotoxicity (benign tumour)” value in data set [11] worked out at 0. In addition, the “Hepatotoxicity (association with vascular disease)” value in [12] was 0. The “Hepatotoxicity (malignant tumour)” value in data set [14] was 0.
As to `C[C@@H]1NC(=O)[C@@H](N)CNC(=O)[C@H](C2CCNC(=N)N2)NC(=O)/C(=C/NC(N)=O)NC(=O)[C@H](CNC(=O)CC(N)CCCN)NC1=O.N=C1NCCC([C@@H]2NC(=O)/C(=C/NC(N)=O)NC(=O)[C@H](CNC(=O)CC(N)CCCN)NC(=O)[C@H](CO)NC(=O)[C@@H](N)CNC2=O)N1` (stereo partly drawn) [CAPREOMYCIN] (H-[Dap]S[Dap](ξβ3hOrn)[ΔAla(Z-3-ureido)][X2]; lactam 1-C), the “Hepatotoxicity (severe hepatitis)” value in [1] was determined as 0. Moreover, the “Hepatotoxicity (chronic liver disease)” value in data set [2] is 0. Further, the “Hepatotoxicity (choleostasis)” value in [3] was 0. Also, the “Hepatotoxicity (acute)” value in [4] came out at 0; in data set [10], 0%. Also, in [5], the “Hepatotoxicity (steatosis)” value is given as 0. In addition, in [6], the “Hepatotoxicity (cirrhosis)” value is recorded as 0. Besides, the “Hepatotoxicity (moderate)” value in data set [7] was 0%; in [13], 3. For the same compound, the “Hepatotoxicity (granulomatous hepatitis)” value in data set [8] was found to be 0. Also, in [9], the “Hepatotoxicity (cytolytic)” value came out at 0. The “Hepatotoxicity (benign tumour)” value in data set [11] worked out at 0. Moreover, in data set [12], the “Hepatotoxicity (association with vascular disease)” value is listed as 0. For the same compound, in data set [14], the “Hepatotoxicity (malignant tumour)” value worked out at 0.
For `Cc1cc(C)cc(OCC2CNC(=O)O2)c1` (configuration not stated) [METAXALONE], in [1], the “Hepatotoxicity (severe hepatitis)” value turned out to be 0. Also, the “Hepatotoxicity (chronic liver disease)” value in data set [2] was determined as 0. In addition, the “Hepatotoxicity (choleostasis)” value in data set [3] came to 0. For the same compound, the “Hepatotoxicity (acute)” value in data set [4] came to 2; in data set [10] it was 0%. Moreover, the “Hepatotoxicity (steatosis)” value in data set [5] is 0. For the same compound, the “Hepatotoxicity (cirrhosis)” value in data set [6] was determined as 0. Moreover, the “Hepatotoxicity (moderate)” value in data set [7] is recorded as 0%; in [13] it was 0. In data set [8], the “Hepatotoxicity (granulomatous hepatitis)” value was found to be 0. In addition, the “Hepatotoxicity (cytolytic)” value in data set [9] was 0. For the same compound, the “Hepatotoxicity (benign tumour)” value in [11] is reported as 0. For the same compound, the “Hepatotoxicity (association with vascular disease)” value in [12] turned out to be 0. In [14], the “Hepatotoxicity (malignant tumour)” value is listed as 0.
On to `CCNNC(=O)[C@@H]1[C@H](c2cc(OC)c(OC)c(OC)c2)c2cc3c(cc2[C@H](O)[C@H]1CO)OCO3` [MITOPODOZIDE], for which the “Hepatotoxicity (severe hepatitis)” value in data set [1] was 0. For the same compound, the “Hepatotoxicity (chronic liver disease)” value in [2] was found to be 0. Further, the “Hepatotoxicity (choleostasis)” value in data set [3] was 0. The “Hepatotoxicity (acute)” value is 0 in data set [4] and 0% in [10]. Moreover, the “Hepatotoxicity (steatosis)” value in data set [5] is recorded as 0. Also, the “Hepatotoxicity (cirrhosis)” value in [6] is on record as 0. In addition, the “Hepatotoxicity (moderate)” value in [7] came out at 1.3%; in data set [13] it was 1. For the same compound, in data set [8], the “Hepatotoxicity (granulomatous hepatitis)” value was 0. Besides, the “Hepatotoxicity (cytolytic)” value in [9] stood at 0. For the same compound, the “Hepatotoxicity (benign tumour)” value in data set [11] was 0. The “Hepatotoxicity (association with vascular disease)” value in [12] amounted to 0. In addition, the “Hepatotoxicity (malignant tumour)” value in data set [14] was 0.
As to `CC[C@H](C)C[C@H](C)CCCCCCCCC(=O)N[C@H]1C[C@@H](O)[C@@H](NCCN)NC(=O)[C@@H]2[C@@H](O)CCN2C(=O)[C@H]([C@H](O)CCN)NC(=O)[C@H]([C@H](O)[C@@H](O)c2ccc(O)cc2)NC(=O)[C@@H]2C[C@@H](O)CN2C(=O)[C@H]([C@@H](C)O)NC1=O` [CASPOFUNGIN], the “Hepatotoxicity (severe hepatitis)” value in data set [1] is listed as 0. Moreover, the “Hepatotoxicity (chronic liver disease)” value in [2] turned out to be 0. In addition, the “Hepatotoxicity (choleostasis)” value in data set [3] is 0. The “Hepatotoxicity (acute)” value in data set [4] is listed as 1; in [10], 0%. In addition, the “Hepatotoxicity (steatosis)” value in data set [5] was determined as 0. For the same compound, in [6], the “Hepatotoxicity (cirrhosis)” value is reported as 0. The “Hepatotoxicity (moderate)” value in data set [7] came out at 8.4%; in data set [13] it was 3. Besides, the “Hepatotoxicity (granulomatous hepatitis)” value in [8] is recorded as 0. Besides, the “Hepatotoxicity (cytolytic)” value in [9] is listed as 0. Further, the “Hepatotoxicity (benign tumour)” value in data set [11] was found to be 0. Also, in [12], the “Hepatotoxicity (association with vascular disease)” value was 0. The “Hepatotoxicity (malignant tumour)” value in data set [14] was 0.
As to `O=C(O)C(=O)O` [OXALIC ACID], the “Hepatotoxicity (severe hepatitis)” value in data set [1] turned out to be 0. The “Hepatotoxicity (chronic liver disease)” value in [2] worked out at 0. For the same compound, the “Hepatotoxicity (choleostasis)” value in data set [3] is listed as 0. The “Hepatotoxicity (acute)” value was determined as 0 in data set [4] and 0% in data set [10]. Moreover, the “Hepatotoxicity (steatosis)” value in data set [5] came to 0. The “Hepatotoxicity (cirrhosis)” value in data set [6] is reported as 0. In addition, the figures for the “Hepatotoxicity (moderate)” value in [7] and in [13] were 0% and 1, respectively. In addition, the “Hepatotoxicity (granulomatous hepatitis)” value in data set [8] was 0. Also, the “Hepatotoxicity (cytolytic)” value in data set [9] was 0. Besides, the “Hepatotoxicity (benign tumour)” value in data set [11] was determined as 0. For the same compound, the “Hepatotoxicity (association with vascular disease)” value in data set [12] turned out to be 0. Moreover, the “Hepatotoxicity (malignant tumour)” value in [14] came out at 0.
Consider `Cc1cccc(C)c1OCC(=O)N[C@@H](Cc1ccccc1)[C@@H](O)C[C@H](Cc1ccccc1)NC(=O)[C@H](C(C)C)N1CCCNC1=O` [LOPINAVIR], for which the “Hepatotoxicity (severe hepatitis)” value in [1] amounted to 0. Also, the “Hepatotoxicity (chronic liver disease)” value in data set [2] amounted to 0. The “Hepatotoxicity (choleostasis)” value in data set [3] is reported as 0. In addition, the “Hepatotoxicity (acute)” value in data set [4] stood at 2; in data set [10], 8%. Further, the “Hepatotoxicity (steatosis)” value in [5] is recorded as 0. Besides, in data set [6], the “Hepatotoxicity (cirrhosis)” value is given as 0. Moreover, the “Hepatotoxicity (moderate)” value in data set [7] worked out at 0%; in data set [13] it was 1. The “Hepatotoxicity (granulomatous hepatitis)” value in data set [8] came out at 0. In addition, in data set [9], the “Hepatotoxicity (cytolytic)” value was determined as 2. For the same compound, in [11], the “Hepatotoxicity (benign tumour)” value came to 0. In addition, the “Hepatotoxicity (association with vascular disease)” value in data set [12] turned out to be 0. Besides, the “Hepatotoxicity (malignant tumour)” value in data set [14] is on record as 0.
As for `CC(N)C(=O)OC(C)(C)Cc1ccc(Cl)cc1` (configuration not stated) [ALAPROCLATE], the “Hepatotoxicity (severe hepatitis)” value in [1] was found to be 0. The “Hepatotoxicity (chronic liver disease)” value in [2] is 0. Also, the “Hepatotoxicity (choleostasis)” value in data set [3] is 0. Moreover, the figures for the “Hepatotoxicity (acute)” value in [4] and in data set [10] were 0 and 0%, respectively. The “Hepatotoxicity (steatosis)” value in data set [5] is on record as 0. The “Hepatotoxicity (cirrhosis)” value in data set [6] is 0. The “Hepatotoxicity (moderate)” value was 0% in data set [7] and 1 in [13]. Besides, in [8], the “Hepatotoxicity (granulomatous hepatitis)” value is 0. In data set [9], the “Hepatotoxicity (cytolytic)” value is recorded as 0. In addition, the “Hepatotoxicity (benign tumour)” value in [11] was determined as 0. Besides, the “Hepatotoxicity (association with vascular disease)” value in data set [12] came out at 0. Besides, in [14], the “Hepatotoxicity (malignant tumour)” value stood at 0.
